Assay results taken from patent US20240423992A1, “BIOMARKERS FOR TREATING LIVER DISORDERS WITH THR-B AGONISTS AND RELATED USES” (Madrigal Pharmaceuticals, Inc., priority 2023, published 2024).

What was measured:
[1] = tested on: adults with nonalcoholic fatty liver disease (NAFLD)/presumed nonalcoholic steatohepatitis (NASH); test: 52-week Phase 3 trial (Example 1): liver volume, open-label arm; format: in vivo, human; details: for Liver volume, mean reduction from baseline: open-label 100 mg resmetirom arm
Method: (§1) A 52-week randomized, double-blind, placebo-controlled Phase 3 trial was conducted to evaluate the safety and effect of resmetirom, an oral, once-daily, liver-targeted thyroid hormone receptor-β selective agonist, on multiple biomarkers in adults with nonalcoholic fatty liver disease (NAFLD)/presumed nonalcoholic steatohepatitis (NASH). Patients were randomized to three double-blind arms (100 mg resmetirom, 80 mg resmetirom, or placebo) or one open-label arm (100 mg resmetirom). Common concomitant medications across the 4 arms were antidiabetes drugs (such as glucagon-like peptide-1 receptor agonists (GLP-1 RAs), metformin, pioglitazone, and sodium/glucose cotransporter-2 inhibitors (SGLT2i)) and drugs to manage dyslipidemia (statins).
Liver volume was evaluated in the open-label 100 mg resmetirom arm at Week 52. Liver volume was reduced from baseline by a mean of 21% and 23% following 16 and 52 weeks of resmetirom treatment, respectively (FIGS. 3A and 3B). […] Correcting hepatic fat reduction for reduced liver volume led to an average hepatic fat reduction of 61% in the open-label arm.

[2] = tested on: adults with nonalcoholic fatty liver disease (NAFLD)/presumed nonalcoholic steatohepatitis (NASH); test: 52-week Phase 3 trial (Example 1): thyroid hormone levels; format: in vivo, human; details: Week 52
Method: as §1
Sex hormone levels after 52 weeks of resmetirom treatment are shown in Table A. Thyroid hormone levels after 52 weeks of resmetirom treatment are reported in Table B.

[3] = Resmetirom 80 mg DB vs Placebo DB
[4] = Resmetirom 100 mg DB vs Placebo DB

**Q.** How did the “Liver volume in patient subgroups” value ([1]; all key patient subgroups of the OL arm) turn out when `CC(C)c1cc(Oc2c(Cl)cc(-n3nc(C#N)c(=O)[nH]c3=O)cc2Cl)n[nH]c1=O` [Resmetirom, 2-[3,5-dichloro-4-[(6-oxo-5-propan-2-yl-1H-pyridazin-3-yl)oxy]phenyl]-3,5-dioxo-1,2,4-triazine-6-carbonitrile] was run?
**A.** reductions in liver volume were observed

**Q.** What about the “Liver volume, mean reduction from baseline” value ([1]; 16 weeks) of the same compound?
**A.** 21%

**Q.** What about the “Liver volume, mean reduction from baseline” value ([1]; 52 weeks) of the same compound?
**A.** 23%

**Q.** What about the “average hepatic fat reduction corrected for reduced liver volume” value ([1]; open-label arm) of the same compound?
**A.** 61%

**Q.** What about the “FT3 (not on thyroxine) LSM Difference” value [2, 3] of the same compound?
**A.** 0.1 ng/L

**Q.** What about the “FT3 (thyroxine-treated) LSM Difference” value [2, 3] of the same compound?
**A.** 0.0 ng/L

**Q.** And the “FT3/rT3 (not on thyroxine) LSM Difference” value [2, 3]?
**A.** 0.05

**Q.** What about the “FT3/rT3 (thyroxine-treated) LSM Difference” value [2, 3] of the same compound?
**A.** 0.03

**Q.** What about the “FT3/rT3 LSM Difference” value [2, 3] of the same compound?
**A.** 0.05

**Q.** What about the “FT3 LSM Difference” value [2, 3] of the same compound?
**A.** 0.1 ng/L

**Q.** What about the “FT4 (not on thyroxine) LSM Difference in % CFB” value [2, 3] of the same compound?
**A.** −11.0%

**Q.** And the “FT4 (not on thyroxine) LSM Difference in CFB” value [2, 3]?
**A.** -0.1 ng/dL

**Q.** And the “FT4 (thyroxine-treated) LSM Difference in % CFB” value [2, 3]?
**A.** −10.2%

**Q.** And the “FT4 (thyroxine-treated) LSM Difference in CFB” value [2, 3]?
**A.** -0.1 ng/dL

**Q.** And the “FT4 LSM Difference in % CFB” value [2, 3]?
**A.** −10.8%

**Q.** And the “FT4 LSM Difference in CFB” value [2, 3]?
**A.** -0.1 ng/dL

**Q.** And the “TBG (not on thyroxine) LSM Difference” value [2, 3]?
**A.** -1.2 mg/L

**Q.** And the “TBG (thyroxine-treated) LSM Difference” value [2, 3]?
**A.** -0.6 mg/L

**Q.** And the “TBG LSM Difference” value [2, 3]?
**A.** -1.1 mg/L

**Q.** What about the “TSH (not on thyroxine) LSM Difference” value [2, 3] of the same compound?
**A.** 0.0 mIU/L

**Q.** And the “TSH (thyroxine-treated) LSM Difference” value [2, 3]?
**A.** −0.3 mIU/L

**Q.** What about the “TSH LSM Difference” value [2, 3] of the same compound?
**A.** −0.0 mIU/L

**Q.** And the “rT3 (not on thyroxine) LSM Difference” value [2, 3]?
**A.** -3.3 ng/dL

**Q.** And the “rT3 (thyroxine-treated) LSM Difference” value [2, 3]?
**A.** -4.4 ng/dL

**Q.** What about the “rT3 LSM Difference” value [2, 3] of the same compound?
**A.** -3.4 ng/dL

**Q.** What about the “FT3 (not on thyroxine) LSM CFB” value ([2]; Resmetirom 80 mg DB) of the same compound?
**A.** -0.1 ng/L

**Q.** What about the “FT3 (thyroxine-treated) LSM CFB” value ([2]; Resmetirom 80 mg DB) of the same compound?
**A.** 0.0 ng/L

**Q.** What about the “FT3/rT3 (not on thyroxine) LSM CFB” value ([2]; Resmetirom 80 mg DB) of the same compound?
**A.** 0.04

**Q.** And the “FT3/rT3 (thyroxine-treated) LSM CFB” value ([2]; Resmetirom 80 mg DB)?
**A.** 0.03

**Q.** What about the “FT3/rT3 LSM CFB” value ([2]; Resmetirom 80 mg DB) of the same compound?
**A.** 0.04

**Q.** And the “FT3 LSM CFB” value ([2]; Resmetirom 80 mg DB)?
**A.** -0.0 ng/L

**Q.** And the “FT4 (not on thyroxine) LSM % CFB” value ([2]; Resmetirom 80 mg DB)?
**A.** −9.9%

**Q.** And the “FT4 (not on thyroxine) LSM CFB” value ([2]; Resmetirom 80 mg DB)?
**A.** -0.1 ng/dL

**Q.** What about the “FT4 (thyroxine-treated) LSM % CFB” value ([2]; Resmetirom 80 mg DB) of the same compound?
**A.** −6.4%

**Q.** And the “FT4 (thyroxine-treated) LSM CFB” value ([2]; Resmetirom 80 mg DB)?
**A.** -0.1 ng/dL

**Q.** What about the “FT4 LSM % CFB” value ([2]; Resmetirom 80 mg DB) of the same compound?
**A.** −9.6%

**Q.** What about the “FT4 LSM CFB” value ([2]; Resmetirom 80 mg DB) of the same compound?
**A.** -0.1 ng/dL

**Q.** And the “TBG (not on thyroxine) LSM CFB” value ([2]; Resmetirom 80 mg DB)?
**A.** -0.5 mg/L

**Q.** What about the “TBG (thyroxine-treated) LSM CFB” value ([2]; Resmetirom 80 mg DB) of the same compound?
**A.** 1.5 mg/L

**Q.** What about the “TBG LSM CFB” value ([2]; Resmetirom 80 mg DB) of the same compound?
**A.** 0.6 mg/L

**Q.** What about the “TSH (not on thyroxine) LSM CFB” value ([2]; Resmetirom 80 mg DB) of the same compound?
**A.** −0.3 mIU/L

**Q.** And the “TSH (thyroxine-treated) LSM CFB” value ([2]; Resmetirom 80 mg DB)?
**A.** −0.9 mIU/L

**Q.** And the “TSH LSM CFB” value ([2]; Resmetirom 80 mg DB)?
**A.** −0.4 mIU/L

**Q.** And the “rT3 (not on thyroxine) LSM CFB” value ([2]; Resmetirom 80 mg DB)?
**A.** -2.5 ng/dL

**Q.** What about the “rT3 (thyroxine-treated) LSM CFB” value ([2]; Resmetirom 80 mg DB) of the same compound?
**A.** -3.8 ng/dL

**Q.** What about the “rT3 LSM CFB” value ([2]; Resmetirom 80 mg DB) of the same compound?
**A.** -2.7 ng/dL

**Q.** And the “FT3 (not on thyroxine) LSM Difference” value [2, 4]?
**A.** 0.0 ng/L

**Q.** What about the “FT3 (thyroxine-treated) LSM Difference” value [2, 4] of the same compound?
**A.** -0.0 ng/L

**Q.** And the “FT3/rT3 (not on thyroxine) LSM Difference” value [2, 4]?
**A.** 0.05

**Q.** And the “FT3/rT3 (thyroxine-treated) LSM Difference” value [2, 4]?
**A.** 0.04

**Q.** And the “FT3/rT3 LSM Difference” value [2, 4]?
**A.** 0.05

**Q.** What about the “FT3 LSM Difference” value [2, 4] of the same compound?
**A.** 0.0 ng/L

**Q.** What about the “FT4 (not on thyroxine) LSM Difference in % CFB” value [2, 4] of the same compound?
**A.** −15.4%

**Q.** And the “FT4 (not on thyroxine) LSM Difference in CFB” value [2, 4]?
**A.** -0.2 ng/dL

**Q.** And the “FT4 (thyroxine-treated) LSM Difference in % CFB” value [2, 4]?
**A.** −23.0%

**Q.** What about the “FT4 (thyroxine-treated) LSM Difference in CFB” value [2, 4] of the same compound?
**A.** -0.3 ng/dL
